Measurements published in US12259384B2, “Membrane and droplet-interface bilayer systems and methods” (University of Massachusetts, priority 2015, dated 2025).

Target: α-hemolysin (Staphylococcus aureus, UniProt P09616)
Type: biochemical

Sequence of α-hemolysin (P09616 27-319 limits assumed): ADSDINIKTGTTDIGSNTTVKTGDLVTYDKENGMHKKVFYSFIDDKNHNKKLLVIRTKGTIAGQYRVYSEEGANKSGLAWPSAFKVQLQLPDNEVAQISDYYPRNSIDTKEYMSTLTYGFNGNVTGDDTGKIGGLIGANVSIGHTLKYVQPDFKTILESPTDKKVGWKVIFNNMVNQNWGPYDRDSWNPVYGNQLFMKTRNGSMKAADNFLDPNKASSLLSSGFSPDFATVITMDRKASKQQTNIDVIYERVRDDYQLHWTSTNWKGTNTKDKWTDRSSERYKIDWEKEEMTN

OC[C@H]1O[C@@H]2O[C@H]3[C@H](O)[C@@H](O)[C@@H](O[C@H]4[C@H](O)[C@@H](O)[C@@H](O[C@H]5[C@H](O)[C@@H](O)[C@@H](O[C@H]6[C@H](O)[C@@H](O)[C@@H](O[C@H]7[C@H](O)[C@@H](O)[C@@H](O[C@H]8[C@H](O)[C@@H](O)[C@@H](O[C@H]9[C@H](O)[C@@H](O)[C@@H](O[C@H]1[C@H](O)[C@H]2O)O[C@@H]9CO)O[C@@H]8CO)O[C@@H]7CO)O[C@@H]6CO)O[C@@H]5CO)O[C@@H]4CO)O[C@@H]3CO [cyclodextrin, γ-Cyclodextrin]
magnitude and lifetime of the reversible blockades of the α-hemolysin pore: consistent with previous reports
reversible blockages of the α-hemolysin pores: reversible blockages of the pores by cyclodextrin are observed
